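Abbreviation: GI50, concentration required for 50% inhibition of growth. TGI is the concentration that stops growth completely.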
Key:
Experiment in all cases: NCI anticancer screen, dose series, 384-well format
786-0 renal = test system: 786-0 renal
A498 renal = test system: A498 renal
A549 NSCLC = test system: A549 NSCLC
ACHN renal = test system: ACHN renal
BT-549 breast = test system: BT-549 breast
CAKI-1 renal = test system: CAKI-1 renal
CCRF-CEM leukemia = test system: CCRF-CEM leukemia
COLO 205 colon = test system: COLO 205 colon
DU-145 prostate = test system: DU-145 prostate
HCC-2998 colon = test system: HCC-2998 colon
HCT-116 colon = test system: HCT-116 colon
HCT-15 colon = test system: HCT-15 colon
HL-60(TB) leukemia = test system: HL-60(TB) leukemia
HOP-62 NSCLC = test system: HOP-62 NSCLC
HOP-92 NSCLC = test system: HOP-92 NSCLC
HT29 colon = test system: HT29 colon
IGROV1 ovarian = test system: IGROV1 ovarian
K-562 leukemia = test system: K-562 leukemia
KM12 colon = test system: KM12 colon
LOX IMVI melanoma = test system: LOX IMVI melanoma
M14 melanoma = test system: M14 melanoma
MALME-3M melanoma = test system: MALME-3M melanoma
MCF7 breast = test system: MCF7 breast
MDA-MB-231 breast = test system: MDA-MB-231 breast
MDA-MB-435 melanoma = test system: MDA-MB-435 melanoma
MDA-MB-468 breast = test system: MDA-MB-468 breast
MOLT-4 leukemia = test system: MOLT-4 leukemia
NCI-H226 lung = test system: NCI-H226 lung
NCI-H23 lung = test system: NCI-H23 lung
NCI-H322M lung = test system: NCI-H322M lung
NCI-H460 NSCLC = test system: NCI-H460 NSCLC
NCI-H522 lung = test system: NCI-H522 lung
NCI/ADR-RES ovarian = test system: NCI/ADR-RES ovarian
OVCAR-3 ovarian = test system: OVCAR-3 ovarian
OVCAR-4 ovarian = test system: OVCAR-4 ovarian
OVCAR-5 ovarian = test system: OVCAR-5 ovarian
OVCAR-8 ovarian = test system: OVCAR-8 ovarian
PC-3 prostate = test system: PC-3 prostate
RPMI-8226 leukemia = test system: RPMI-8226 leukemia
RXF 393 renal = test system: RXF 393 renal
SF-268 CNS = test system: SF-268 CNS
SF-295 CNS = test system: SF-295 CNS
SF-539 CNS = test system: SF-539 CNS
SK-MEL-2 melanoma = test system: SK-MEL-2 melanoma
SK-MEL-28 melanoma = test system: SK-MEL-28 melanoma
SK-MEL-5 melanoma = test system: SK-MEL-5 melanoma
SK-OV-3 ovarian = test system: SK-OV-3 ovarian
SN12C renal = test system: SN12C renal
SNB-19 CNS = test system: SNB-19 CNS
SR leukemia = test system: SR leukemia
SW-620 colon = test system: SW-620 colon
T-47D breast = test system: T-47D breast
TK-10 renal = test system: TK-10 renal
U251 glioblastoma = test system: U251 glioblastoma
UACC-257 melanoma = test system: UACC-257 melanoma
UACC-62 melanoma = test system: UACC-62 melanoma
UO-31 renal = test system: UO-31 renal

## C=Cc1c(C)c2cc3nc(cc4[nH]c(cc5nc(cc1[nH]2)C(C)=C5CCC(=O)O)c(CCC(=O)OC)c4C)[C@@]1(C)C3=CC=C(C(=O)OC)[C@H]1C(=O)OC
786-0 renal
  GI50: 2.26 µM
  TGI: 6.55 µM
A498 renal
  GI50: 1.78 µM
  TGI: 4.06 µM
A549 NSCLC
  GI50: 1.65 µM
  TGI: 4.09 µM
ACHN renal
  GI50: 2.46 µM
  TGI: 6.83 µM
BT-549 breast
  GI50: 1.32 µM
  TGI: 3.3 µM
CAKI-1 renal
  GI50: 2.85 µM
  TGI: 7.69 µM
CCRF-CEM leukemia
  GI50: 1.19 µM
  TGI: 2.71 µM
COLO 205 colon
  GI50: 2.45 µM
  TGI: 5.95 µM
DU-145 prostate
  GI50: 2.22 µM
  TGI: 5.49 µM
HCC-2998 colon
  GI50: 1.54 µM
  TGI: 3.11 µM
HCT-116 colon
  GI50: 1.28 µM
  TGI: 2.77 µM
HCT-15 colon
  GI50: 1.73 µM
  TGI: 3.32 µM
HL-60(TB) leukemia
  GI50: 1.87 µM
  TGI: 3.29 µM
HOP-62 NSCLC
  GI50: 1.7 µM
  TGI: 4.16 µM
HOP-92 NSCLC
  GI50: 1.92 µM
  TGI: 4.32 µM
HT29 colon
  GI50: 1.98 µM
  TGI: 4.72 µM
IGROV1 ovarian
  GI50: 1.93 µM
  TGI: 4.73 µM
K-562 leukemia
  GI50: 1.03 µM
  TGI: 9.64 µM
KM12 colon
  GI50: 1.76 µM
  TGI: 3.66 µM
LOX IMVI melanoma
  GI50: 2.64 µM
  TGI: 4.81 µM
M14 melanoma
  GI50: 2.28 µM
  TGI: 5.23 µM
MALME-3M melanoma
  GI50: 1.66 µM
  TGI: 3.92 µM
MCF7 breast
  GI50: 1.94 µM
  TGI: 5.76 µM
MDA-MB-231 breast
  GI50: 1.51 µM
  TGI: 4.38 µM
MDA-MB-435 melanoma
  GI50: 2.36 µM
  TGI: 5.48 µM
MDA-MB-468 breast
  GI50: 0.75 µM
  TGI: 2.67 µM
MOLT-4 leukemia
  GI50: 1.23 µM
  TGI: 2.49 µM
NCI-H226 lung
  GI50: 1.48 µM
  TGI: 3.36 µM
NCI-H23 lung
  GI50: 0.333 µM
  TGI: 1.28 µM
NCI-H322M lung
  GI50: 1.88 µM
  TGI: 4.54 µM
NCI-H460 NSCLC
  GI50: 1.69 µM
  TGI: 3.26 µM
NCI-H522 lung
  GI50: 1.33 µM
  TGI: 3.66 µM
NCI/ADR-RES ovarian
  GI50: 1.91 µM
  TGI: 4.63 µM
OVCAR-3 ovarian
  GI50: 1.74 µM
  TGI: 3.41 µM
OVCAR-4 ovarian
  GI50: 1.25 µM
  TGI: 3.61 µM
OVCAR-5 ovarian
  GI50: 2.49 µM
  TGI: 5.93 µM
OVCAR-8 ovarian
  GI50: 2.09 µM
  TGI: 6.68 µM
PC-3 prostate
  GI50: 1.93 µM
  TGI: 4.24 µM
RPMI-8226 leukemia
  GI50: 1.5 µM
  TGI: 2.84 µM
RXF 393 renal
  GI50: 0.668 µM
  TGI: 2.56 µM
SF-268 CNS
  GI50: 1.94 µM
  TGI: 5.63 µM
SF-295 CNS
  GI50: 1.28 µM
  TGI: 2.94 µM
SF-539 CNS
  GI50: 1.65 µM
  TGI: 3.22 µM
SK-MEL-2 melanoma
  GI50: 1.64 µM
  TGI: 3.33 µM
SK-MEL-28 melanoma
  GI50: 1.98 µM
  TGI: 4.25 µM
SK-MEL-5 melanoma
  GI50: 1.3 µM
  TGI: 2.68 µM
SK-OV-3 ovarian
  GI50: 1.92 µM
  TGI: 4.73 µM
SN12C renal
  GI50: 2.88 µM
  TGI: 9.35 µM
SNB-19 CNS
  GI50: 2.76 µM
  TGI: 9.04 µM
SR leukemia
  GI50: 0.579 µM
  TGI: 1.85 µM
SW-620 colon
  GI50: 3.22 µM
  TGI: 9.29 µM
T-47D breast
  GI50: 0.999 µM
  TGI: 6.82 µM
TK-10 renal
  GI50: 2.4 µM
  TGI: 6.19 µM
U251 glioblastoma
  GI50: 1.61 µM
  TGI: 3.97 µM
UACC-257 melanoma
  GI50: 1.64 µM
  TGI: 3.87 µM
UACC-62 melanoma
  GI50: 1.88 µM
  TGI: 3.63 µM
UO-31 renal
  GI50: 2.33 µM
  TGI: 6.21 µM
